Measurements taken from US20210393565A1, “PREPARATION FOR USE TO INCREASE THE FORMATION OF ONE OR MORE SPECIALIZED PRO-RESOLVING LIPID MEDIATORS (SPM)” (Evonik Operations GmbH, priority 2018, published 2021).

Key:
Type in all cases: cell-based
[1] = test system: Bacillus megaterium DSM 33299 cells; test: Lipidometabolomics of culture supernatants with AvailOm dispersion formulation; conditions: Bacillus megaterium DSM 33299, AvailOm dispersion formulation; net concentration
Description: (§1) Bacterial supernatant samples were subjected to lipid extraction using RP-phase solid phase extraction and subsequently analyzed by ultra performance liquid chromatography ESI tandem mass spectrometry (UPLC-MS/MS) according to a published procedure. Under these conditions approximately 40 different LM, including 5-hydroxy-eicosapentaenoic acid 5-HEPE, 8-HEPE, 11-HEPE, 12-HEPE, 15-HEPE, 18-HEPE, 5-hydroxy-eicosatetraenoic acid (5-HETE), 8-HETE, 11-HETE, 12-HETE, 15-HETE, 4-hydroxy-DHA (4-HDHA), 7-HDHA, 13-HDHA, 14-HDHA, 17-HDHA, lipoxin A4 (LXA4), LXB4, resolvin E1 (RvE1), RvE3, resolvin D1-5 (RvD1-5), AT-RvD1, RvD2, protectin D1 (PD1), AT-PD1, maresin 1(MaR1), MaR2, plus 4 fatty acid substrates can be detected with a lower limit of detection of 1 pg.
(§2) 47 additional Bacillus megaterium strains sourced from various habitats were screened for their SPM production capacity to determine if this is a general phenomenon of the species Bacillus megaterium and to detect strain-specific differences in types and quantities of SPM being produced. Cells were cultured as detailed in example 4, with dispersion formulation of AvailOm® serving as omega-3 fatty acid source. Cell-free preparations of AvailOm® were treated and analyzed in parallel and served as controls for non-enzymatic, spontaneous formation of oxygenation products. It was observed that all tested strains produced measurable (>1 pg/ml) amounts of various SPM and precursors thereof, that these amounts were hugely different between the strains (up to 2.000 fold), and that concentrations of RvE3 were particularly high (up to 1.3 μg/ml) in most of the strains.
(§3) Values given in table 7 display net concentrations of PUFA oxygenation products formed by two of the top performing strains, Bacillus megaterium DSM 33296 and Bacillus megaterium DSM 33299.

[2] = test system: Bacillus megaterium DSM 33296 cells; test: as above; conditions: Bacillus megaterium DSM 33296, AvailOm dispersion formulation; net concentration
Description: as §1, §2, §3

[3] = test system: Bacillus megaterium DSM 32963 cells; test: Lipidometabolomics (UPLC-MS/MS) of culture supernatants with AvailOm, dissolved or as dispersion; conditions: − bile acids, AvailOm dispersion; net after subtraction of cell-free control
Description: as §1
To investigate if Bacillus megaterium is capable of producing other PUFA oxygenation products in addition to 18-HEPE, a lipidometabolomics screening of supernatants from Bacillus megaterium strain 32963 cultured as in example 4 with AvailOm® was performed, either dissolved or in a dispersion formulation, with or without bile acids. Cell-free preparations of AvailOm® formulations were treated and analyzed in parallel and served as controls for non-enzymatic, spontaneous formation of oxygenation products. Values given in table 6 display net concentrations of products formed, i.e. after subtraction of control values. […] Concentrations of several SPM exceed by far the concentrations of SPM found in human plasma samples, which are typically in a range of ˜20-100 pg/ml. For comparison, human breast milk contains ˜6.000 pg/ml RvE1 and ˜10.000 pg/ml RvD1 [42].

[4] = test system: 47 additional Bacillus megaterium strains; test: Screening of 47 additional strains for SPM production from AvailOm dispersion formulation
Description: as §1
as §2, with “It was observed that all tested strains produced measurable (>1 pg/ml) amounts of various SPM and precursors thereof, that these amounts were hugely different between the strains (up to 2.000 fold), and that concentrations of RvE3 were particularly high (up to 1.3 μg/ml) in most of the strains.” left out

SMILES: CC[C@H](O)C(O)/C=C/C=C/C=C\C/C=C\C/C=C\CCCC(=O)O (stereo partly shown) [RvE3, resolvin E3]
- Extracellular concentration of PUFA oxygenation product [1]: 880739 pg/mL
- Extracellular concentration of PUFA oxygenation product [2]: 1322555 pg/mL
- Extracellular concentration of PUFA oxygenation product [3]: 33092 pg/mL
- concentration produced, highest among the strains [4]: up to 1.3 μg/ml
